Test results taken from patent publication US20030003396A1, “Optical data carrier comprising a merocyanine dye as light-absorbent compound in the information layer” (priority 2001, published 2003).
Marks after values point to notes of the source that are not given here.

Legend:
[1] = Solubility in coating solvent; settings: in TFP (2,2,3,3-tetrafluoropropanol)
[2] = UV absorption spectra measured in solution; assay type: physicochemical
Source text: In the case of a write-once optical data carrier according to the invention which is written on and read by means of the light of a blue laser, preference is given to merocyanine dyes whose absorption maximum λmax1 is in the range from 340 to 410 nm, […] half of the […] one tenth of the absorbance value at λmax1 are preferably not more than 50 nm apart. Such a merocyanine dye preferably has no longer-wavelength maximum λmax2 up to a wavelength of 500 nm, particularly preferably up to 550 nm, very particularly preferably up to 600 nm.
The absorption spectra are measured, for example, in solution.
Suitable merocyanines having the required spectral properties are, in particular, those in which the dipole moment change Δμ=|μg−μag|, i.e. the positive difference between the dipole moments in the ground state and in the first excited state, is very small, preferably <5 D, particularly preferably <2 D. A method of determining such a dipole moment change Δμ is described, for example, in F. Würthner et al., Angew. Chem. 1997, 109, 2933, and in the literature cited therein. A low solvent-induced wavelength shift (dioxane/DMF) is likewise a suitable selection criterion. Preference is given to merocyanines whose solvent-induced wavelength shift Δλ=|λDMF−λdioxane|, i.e. the positive difference between the absorption wavelengths in the solvents dimethylformamide and dioxane, is <20 nm, particularly preferably <10 nm, very particularly preferably <5 nm

[3] = Table 1, on the short wavelength flank
[4] = Table 1, on the long wavelength flank
[5] = Table 2, on the short wavelength flank
[6] = Table 2, on the long wavelength flank

In the case of `CCOC(=O)C1=C(C#N)C(=O)N(C)C(=O)/C1=C/C=C1\N(C)c2ccccc2C1(C)C` [Example 1], the Solubility [1] was over 2%, the “ε (molar extinction coefficient)” value ([2]; at absorption maximum) was 56010 L/mol/cm and the “UV λmax” value ([2]; in DMF) was 609 nm. The “UV λmax” value ([2]; in dioxane) was 587 nm, the λ1/2-λ1/10 ([2]; long wavelength flank) was 27 nm and the “Δλ (solvent-induced wavelength shift)” value ([2]; |λDMF−λdioxane|) was 22 nm.
For `CN(C)c1ncc(C(C#N)=C(C#N)C#N)s1` [Example 5], the ε ([2]; Table 1) was 40990 L/mol/cm, the λmax ([2]; Table 1, in dioxane) was 470 nm and the λ1/2-λ1/10 [2, 3] was 32^3) nm. It also gave a Δλ ([2]; Table 1, |λDMF-λdioxane|) of 16 nm.
In the case of `CCCN1C(=O)C(=Cc2cnc(N(C)C)s2)C(C)=C(C#N)C1=O` [Example 6], the ε ([2]; Table 1) was 62860 L/mol/cm, the λmax ([2]; Table 1, in dioxane) was 502 nm and the λ1/2-λ1/10 [2, 3] was 33^3) nm.
With `CCCCN(CCCC)c1ccc(C=C2C(=O)OC(C)(C)OC2=O)o1` [Example 8] the ε ([2]; Table 1) was 70880 L/mol/cm, the λmax ([2]; Table 1, in dioxane) was 472 nm and the λ1/2-λ1/10 [2, 3] was 32^3) nm. It also gave a Δλ ([2]; Table 1, |λDMF-λdioxane|) of 5 nm.
In the case of `CCCCN(CCCC)c1ccc(C=C2C(=O)N(C)C(=O)N(C)C2=O)o1` [Example 9], the ε ([2]; Table 1) was 117700 L/mol/cm and the λmax ([2]; Table 1, in DMF) was 490^6) nm.
Work on `CCCCN(CCCC)c1ccc(C=C2C(=O)N(C)C(=O)C(C#N)=C2C)o1` [Example 10] yielded a ε ([2]; Table 1) of 106640 L/mol/cm and a λmax ([2]; Table 1, in dioxane) of 539 nm.
`CCCCN(CCCC)c1ncc(C=C2C(=O)N(CC)C(=O)C(C#N)=C2C)s1` [Example 13] showed a ε ([2]; Table 1) of 78400 L/mol/cm and a λmax ([2]; Table 1, in dioxane) of 508 nm.
For `CCCCN(CCCC)c1ccc(C=C2C(=O)N(CCOC)C(=O)C(C#N)=C2C)s1` [Example 14], the ε ([2]; Table 1) was 112260 L/mol/cm, the λmax ([2]; Table 1, in dioxane) was 535 nm and the λ1/2-λ1/10 [2, 4] was 13^4) nm.
Work on `CCCCCCCCCCCCN1C(=O)C(=Cc2ccc(N(C)C)o2)C(=O)N(C)C1=O` [Example 15] yielded a ε ([2]; Table 1) of 53360 L/mol/cm and a λmax ([2]; Table 1, in dioxane) of 483 nm.
Work on `CCCCCCN1C(=O)C(=Cc2ccc(N(C)C)o2)C(C)=C(C#N)C1=O` [Example 16] yielded a ε ([2]; Table 1) of 128960 L/mol/cm, a λmax ([2]; Table 1, in dioxane) of 535 nm and a Δλ ([2]; Table 1, |λDMF-λdioxane|) of 1.3 nm.
With `CCN1C(=O)C(=Cc2ccc(N3CCCC3)o2)C(C)=C(C#N)C1=O` [Example 17] the ε ([2]; Table 1) was 115603 L/mol/cm, the λmax ([2]; Table 1, in DMF) was 536^6) nm and the Δλ ([2]; Table 1, |λDMF-λdioxane|) was 2 nm.
For `CCCCN(CCCC)c1ccc(C=C2C(=O)N(CCC)C(=O)C(C#N)=C2C)s1` [Example 18], the ε ([2]; Table 1) was 112260 L/mol/cm, the λmax ([2]; Table 1, in dioxane) was 535 nm and the λ1/2-λ1/10 [2, 4] was 13^4) nm.
In the case of `CCCCN(CCCC)c1ccc(C=C2C(=O)N(C)C(=S)N(C)C2=O)o1` [Example 29], the ε ([2]; Table 1) was 153420 L/mol/cm, the λmax ([2]; Table 1, in dioxane) was 508 nm and the λ1/2-λ1/10 [2, 4] was 11^4) nm.
For `CCN(CC)c1ncc(C=C2C(=O)c3ccccc3C2=O)s1` [Example 32], the ε ([2]; Table 1) was 62026 L/mol/cm, the λmax ([2]; Table 1, in dioxane) was 472 nm and the λ1/2-λ1/10 [2, 3] was 42^3) nm.
For `CCN(CC)c1ncc(C=C(C#N)[n+]2ccccc2)s1.[O-][Cl+3]([O-])([O-])[O-]` [Example 33], the ε ([2]; Table 1) was 28360 L/mol/cm and the λmax ([2]; Table 1, in methanol) was 432^5) nm.
With `CCCOC(=O)C(C#N)=CC=C1N(C)c2ccccc2C1(C)C` [Example 38] the ε ([2]; Table 2) was 60390 L/mol/cm, the λmax ([2]; Table 2, in dioxane) was 429 nm and the λ1/2-λ1/10 [2, 5] was 30^3) nm. It also gave a Δλ ([2]; Table 2, |λDMF - λdioxane|) of 7 nm.
In the case of `CN1C(=CC=C2C(=O)c3ccccc3C2=O)C(C)(C)c2ccccc21` [Example 39], the ε ([2]; Table 2) was 102220 L/mol/cm, the λmax ([2]; Table 2, in dioxane) was 487 nm and the λ1/2-λ1/10 [2, 5] was 35^3) nm. It also gave a Δλ ([2]; Table 2, |λDMF - λdioxane|) of 6 nm.
In the case of `CN1C(=CC=C2C(=O)OC(C)(C)OC2=O)C(C)(C)c2ccccc21` [Example 40], the ε ([2]; Table 2) was 76260 L/mol/cm, the λmax ([2]; Table 2, in dioxane) was 448 nm and the λ1/2-λ1/10 [2, 5] was 27^3) nm. It also gave a Δλ ([2]; Table 2, |λDMF - λdioxane|) of 2 nm.
In the case of `CN1C(=CC=C2C(=O)CC(C)(C)CC2=O)C(C)(C)c2ccccc21` [Example 41], the ε ([2]; Table 2) was 76130 L/mol/cm, the λmax ([2]; Table 2, in dioxane) was 469 nm and the λ1/2-λ1/10 [2, 5] was 28^3) nm. The Δλ ([2]; Table 2, |λDMF - λdioxane|) was 3 nm.
With `CCCCN1C(=O)C(=CC=C2N(C)c3ccccc3C2(C)C)C(C)=C(C#N)C1=O` [Example 42] the ε ([2]; Table 2) was 113100 L/mol/cm, the λmax ([2]; Table 2, in dioxane) was 520 nm and the λ1/2-λ1/10 [2, 6] was 12^4) nm. It also gave a Δλ ([2]; Table 2, |λDMF - λdioxane|) of 2 nm.
For `COc1ccc2c(c1)C(C)(C)C(=CC(C#N)=C(C#N)C#N)N2C` [Example 43], the ε ([2]; Table 2) was 31345 L/mol/cm, the λmax ([2]; Table 2, in dioxane) was 511 nm and the λ1/2-λ1/10 [2, 5] was 36^3) nm. For the same molecule, the Δλ ([2]; Table 2, |λDMF - λdioxane|) was 6 nm.
With `CC1=C(C#N)C(=O)N(C2CCCCC2)C(=O)C1=CC=C1N(C)c2ccccc2C1(C)C` [Example 45] the ε ([2]; Table 2) was 55910 L/mol/cm, the λmax ([2]; Table 2, in dioxane) was 519 nm and the λ1/2-λ1/10 [2, 6] was 11^4) nm.
Molecule `COc1ccc2c(c1)C(C)(C)C(=CC=C1C(=O)N(c3ccc(C4CCS(=O)(=O)C4)cc3)N=C1C)N2C` (stereo not shown) [Example 50] has a ε ([2]; Table 2) of 47640 L/mol/cm and a λmax ([2]; Table 2, in dioxane) of 473 nm.
`CCOC(=O)C1=NN(c2ccccc2)C(=O)C1=CC=C1N(C)c2ccc(C(=O)OC)cc2C1(C)C` [Example 52] showed a ε ([2]; Table 2) of 62720 L/mol/cm and a λmax ([2]; Table 2, in dioxane) of 496 nm.
